We go through two compounds from US6399643B1, “Spiroimidazolidine derivatives, their preparation, their use and pharmaceutical preparations formed therefrom” (Aventis Pharma Deutschland GmbH, priority 1999, dated 2002).

Structures can show the parent of a compound that is named as a salt.

The experiment addresses T1, interaction between VCAM-1 and VLA-4 (Homo sapiens, UniProt P05556+P13612).
T1 construct: supplied in their natural form as surface molecules on human U937 cells; host or cells: human U937 cells (VLA-4, endogenous); the partner hVCAM-1(1-3)-IgG was made in house in transfected COS cells (ATCC CRL1651) and used as culture supernatant
Briefly: U937/VCAM-1 cell adhesion test (adhesion of U937 cells to hVCAM-1(1-3)-IgG). It counts as cell-based. As to conditions: inhibition of adhesion of human U937 cells (ATCC CRL 1593) to hVCAM-1(1-3)-IgG. An excerpt:
A) U937/VCAM-1 Cell Adhesion Test
The test method used for the activity of the compounds of the formula I on the interaction between VCAM-1 and VLA-4 is the assay described below, which is specific for this interaction. The cellular binding components, that is the VLA-4 integrins, are supplied in their natural form as surface molecules on human U937 cells (ATCC CRL 1593), which belong to the leukocytes group. The specific binding components used are genetically engineered recombinant soluble fusion proteins, consisting of the extracytoplasmic domain of human VCAM-1 and the constant region of a human immunoglobulin of the subclass IgG1.
Assay for the Measurement of the Adhesion of U937 Cells (ATCC CRL 1593) to hVCAM-1 (1-3)-IgG
1. Preparation of Human VCAM-1(1-3)-IgG and Human CD4-IgG
A genetic construct for the expression of the extracellular domain of human VCAM-1, combined with the genetic sequence of the heavy chain of human immunoglobulin IgG1 (hinge, CH2 and CH3 regions) (from Brian Seed, Massachusetts General Hospital, Boston, USA; cf. Damle and Aruffo, Proc. Natl. Acad. Sci. USA 1991, 88, 6403), was employed. The soluble fusion protein hVCAM-1(1-3)-IgG contained the three aminoterminal extracellular immunoglobulin-like domains of human VCAM-1 (Damle and Aruffo, Proc. Natl. Acad. Sci. USA 1991, 88, 6403). CD4-IgG (Zettlmeissl et al., DNA and Cell Biology 1990, 9, 347) served as a fusion protein for negative controls. The recombinant proteins were expressed as soluble proteins after DEAE/dextran-mediated DNA transfection in COS cells (ATCC CRL1651) according to standard procedures (Ausubel et al., Current protocols in molecular biology, John Wiley & Sons, Inc., 1994).
2. Assay for the Measurement of the Adhesion of U937 Cells to hVCAM-1(1-3)-IgG
2.1 96-well microtiter test plates (Nunc Maxisorb) were incubated at room temperature for 1 hour with 100 μl/well of a goat-anti-human IgG antibody solution (10 μg/ml in 50 mM tris, pH 9.5). After removal of the antibody solution, washing was carried out once with PBS.
2.2 150 μl/well of a blocking buffer (1% BSA in PBS) were incubated on the plates at room temperature for 0.5 hour. After removal of the blocking buffer, washing was carried out once with PBS.
2.3 100 μl per well of a cell culture supernatant of transfected COS cells were incubated on the plates at room temperature for 1.5 hours. The COS cells were transfected with a plasmid which codes for the three N-terminal immunoglobulin-like domains of VCAM-1, coupled to the Fc portion of human IgG1 (hVCAM-1 (1-3)-IgG). The content of hVCAM-1(1-3)-IgG was about 0.5-1 μg/ml. After removing the culture supernatant, washing was carried out once with PBS.
2.4 The plates were incubated at room temperature for 20 minutes with 100 μl/well of Fc receptor blocking buffer (1 mg/ml of γ-globulin, 100 mM NaCl, 100 μM MgCl2, 100 μM MnCl2, 100 μM CaCl2, 1 mg/ml of BSA in 50 mM HEPES, pH 7.5). After removal of the Fc receptor blocking buffer, washing was carried out once with PBS.
2.5 20 μl of binding buffer (100 μM NaCl, 100 μM MgCl2, 100 μM MnCl2, 100 μM CaCl2, 1 mg/ml of BSA in 50 mM HEPES, pH 7.5) were initially introduced, and the substances to be tested were added in 10 μl of binding buffer and incubated for 20 minutes. The controls used were antibodies against VCAM-1(BBT, No. BBA6) and against VLA-4(Immunotech, No. 0764).
2.6 U937 cells were incubated in Fc receptor blocking buffer for 20 minutes and then pipetted in at a concentration of 1×10^6/ml and in an amount of 100 μl per well ([…]).
2.7 The plates were slowly immersed at an angle of 45° in stop buffer (100 mM NaCl, 100 μM MgCl2, 100 μM MnCl2, 100 μM CaCl2 in 25 mM Tris, pH 7.5) and shaken off. The process was repeated.
2.8 50 μl/well of a dye solution ([…] of Hoechst Dye 33258, 4% formaldehyde, 0.5% Triton X-100 in PBS) were then incubated on the plates for 15 minutes. […]

T1 sequence (P13612 34-1032): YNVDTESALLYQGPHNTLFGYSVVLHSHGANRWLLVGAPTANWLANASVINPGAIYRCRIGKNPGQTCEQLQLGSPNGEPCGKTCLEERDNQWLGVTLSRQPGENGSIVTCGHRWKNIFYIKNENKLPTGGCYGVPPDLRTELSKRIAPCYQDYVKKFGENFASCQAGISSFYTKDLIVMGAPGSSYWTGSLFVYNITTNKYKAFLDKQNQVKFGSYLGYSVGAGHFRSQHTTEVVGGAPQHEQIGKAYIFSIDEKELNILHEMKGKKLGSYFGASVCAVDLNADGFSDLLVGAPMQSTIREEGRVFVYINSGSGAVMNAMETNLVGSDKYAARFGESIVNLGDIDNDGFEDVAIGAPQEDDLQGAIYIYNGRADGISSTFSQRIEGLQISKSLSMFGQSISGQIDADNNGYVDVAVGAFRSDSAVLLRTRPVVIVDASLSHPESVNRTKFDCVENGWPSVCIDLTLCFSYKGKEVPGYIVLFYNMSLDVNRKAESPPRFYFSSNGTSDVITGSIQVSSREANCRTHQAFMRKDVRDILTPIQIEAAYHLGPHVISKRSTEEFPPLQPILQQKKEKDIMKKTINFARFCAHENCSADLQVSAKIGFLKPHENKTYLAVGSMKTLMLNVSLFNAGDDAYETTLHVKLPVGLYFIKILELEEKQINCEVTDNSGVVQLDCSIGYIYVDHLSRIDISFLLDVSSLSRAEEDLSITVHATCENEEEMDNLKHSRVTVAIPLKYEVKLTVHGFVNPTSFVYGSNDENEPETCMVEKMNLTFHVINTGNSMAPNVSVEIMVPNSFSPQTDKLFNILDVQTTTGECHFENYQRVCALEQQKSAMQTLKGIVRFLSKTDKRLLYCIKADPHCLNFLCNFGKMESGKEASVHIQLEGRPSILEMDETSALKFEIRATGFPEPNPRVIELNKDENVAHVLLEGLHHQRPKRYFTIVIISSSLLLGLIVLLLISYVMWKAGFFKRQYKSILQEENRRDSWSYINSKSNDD
T1 sequence (P05556 21-798): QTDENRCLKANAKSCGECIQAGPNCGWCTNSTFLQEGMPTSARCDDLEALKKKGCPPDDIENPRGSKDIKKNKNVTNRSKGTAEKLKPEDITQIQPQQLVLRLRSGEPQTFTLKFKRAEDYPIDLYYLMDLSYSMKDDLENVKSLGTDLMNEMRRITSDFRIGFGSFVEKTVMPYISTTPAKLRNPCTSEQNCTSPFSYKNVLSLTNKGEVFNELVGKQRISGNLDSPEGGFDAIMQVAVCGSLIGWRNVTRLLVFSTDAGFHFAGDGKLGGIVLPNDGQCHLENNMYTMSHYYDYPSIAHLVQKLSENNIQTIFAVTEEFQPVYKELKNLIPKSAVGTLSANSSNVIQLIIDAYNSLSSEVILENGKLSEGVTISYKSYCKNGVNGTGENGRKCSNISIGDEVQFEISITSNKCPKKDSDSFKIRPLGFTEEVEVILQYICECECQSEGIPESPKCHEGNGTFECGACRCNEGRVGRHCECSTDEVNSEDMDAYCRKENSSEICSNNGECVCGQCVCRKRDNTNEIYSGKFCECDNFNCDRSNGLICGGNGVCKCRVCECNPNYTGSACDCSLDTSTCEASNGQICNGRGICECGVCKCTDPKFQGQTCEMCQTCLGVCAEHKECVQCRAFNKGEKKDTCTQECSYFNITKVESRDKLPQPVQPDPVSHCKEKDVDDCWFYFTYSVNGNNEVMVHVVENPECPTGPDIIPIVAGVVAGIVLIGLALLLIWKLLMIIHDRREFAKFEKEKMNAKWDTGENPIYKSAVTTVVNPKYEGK

The compound `COc1ccc([C@H](CC(=O)O)NC(=O)[C@H](CC2CC2)N2C(=O)N(Cc3ccc(NC(=O)Nc4ccccc4C)cc3)C3(CCCCC3)C2=O)c(OC)c1` [Example 40, (S)-3-((S)-2-(4,4-Pentamethylene-3-(4-(3-(2-methylphenyl)ureido)benzyl)-2,5-dioxoimidazolidin-1-yl)-2-cyclopropylmethylacetylamino)-3-(2,4-dimethoxyphenyl)propionic acid] gave an IC50 of 2.1 nM. On to `COc1ccc([C@H](CC(=O)O)NC(=O)[C@H](CC2CC2)N2C(=O)N(Cc3ccc(NC(=O)Nc4ccccc4C)cc3)C3(CCCCC3)C2=O)c(OC)c1` [Example 41, (S)-3-((S)-2-(4,4-Pentamethylene-3-(4-(3-(2-methylphenyl)ureido)benzyl)-2,5-dioxoimidazolidin-1-yl)-2-cyclopropylmethylacetylamino)-3-(2,4-dimethoxyphenyl)propionic acid sodium salt], for which the midpoint of inhibition, the IC50, lay at 2.3 nM.
